Data: patent US20090069384A1, “THIENOPYRROLES USEFUL IN THE TREATMENT OF INFLAMMATION” (BIOLIPOX AB, priority 2005, published 2009)

Biological target: T1, mPGES-1 (Homo sapiens, UniProt O14684)
T1 construct: made in house; host or cells: E. coli (membrane fraction)
T1 sequence (O14684 1-152): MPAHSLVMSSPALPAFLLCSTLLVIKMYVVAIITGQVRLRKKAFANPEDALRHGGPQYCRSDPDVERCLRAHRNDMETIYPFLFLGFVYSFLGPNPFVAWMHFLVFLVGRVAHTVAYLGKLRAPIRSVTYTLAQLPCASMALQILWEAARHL
Test: mPGES-1 inhibition assay (conversion of PGH2 to PGE2, HPLC analysis)
Type: biochemical
Conditions: mPGES-1 expressed in E. coli, membrane fraction; room temperature; PGH2 substrate, 60 seconds
Protocol: In the assay mPGES-1 catalyses the reaction where the substrate PGH2 is converted to PGE2. mPGES-1 is expressed in E. coli and the membrane fraction is dissolved in 20 mM NaPi-buffer pH 8.0 and stored at −80° C. […] The stop solution consists of H2O/MeCN (7/3), containing FeCl2 (25 mM) and HCl (0.15 M). The assay is performed at room temperature in 96-well plates.
The following is added chronologically to each well: • 1. 100 uL mPGES-1 in KPi-buffer with glutathione. Total protein concentration: 0.02 mg/mL. • 2. 1 μL inhibitor in DMSO. Incubation of the plate at room temperature for 25 minutes. • 3. 4 μL of a 0.25 mM PGH2 solution. Incubation of the plate at room temperature for 60 seconds. • 4. 100 μL stop solution. • 180 μL per sample is analyzed with HPLC.

Structure (SMILES)	IC50
Cc1ccc(-n2c(C(=O)O)cc3sc(-c4ccc(OC(C)C)cc4)cc32)cc1[N+](=O)[O-] [Example 28, 2-(4-Isopropoxyphenyl)-4-(4-methyl-3-nitrophenyl)thieno[3,2-b]pyrrole-5-carboxylic Acid]	5.1 µM
CC(C)(C)c1ccc(-c2cc3c(s2)c(-c2ccc(C(C)(C)C)cc2)c(C(=O)O)n3Cc2cccc(Cl)c2)cc1 [Example 2, 2,6-Bis-(4-tert-butylphenyl)-4-(3-chlorobenzyl)thieno[3,2-b]pyrrole-5-carboxylic Acid]	0.39 µM
CC(C)Oc1ccc(-c2cc3cc(C(=O)O)n(Cc4cccc(Cl)c4)c3s2)cc1 [Example 35, 6-(3-Chlorobenzyl)-2-(4-isopropoxyphenyl)-6H-thieno[2,3-b]pyrrole-5-carboxylic Acid]	4.7 µM
Cc1ccc(-c2cc3c(s2)c(I)c(C(=O)O)n3Cc2cccc(Cl)c2)s1 [Example 4, 4-(3-Chlorobenzyl)-6-iodo-2-(5-methylthien-2-yl)thieno[3,2-b]pyrrole-5-carboxylic Acid]	1.3 µM
